Experimental data: the supplement of paper PMC10307832

How the values were obtained:
Assay in all cases: relative viability (nuclei count vs DMSO), 5 days (fraction); higher = more cells survive
Bleomycin + Navitoclax = compound: CC1=C(N=C(N=C1N)[C@H](CC(=O)N)NC[C@@H](C(=O)N)N)C(=O)N[C@@H]([C@H](C2=CN=CN2)OC3C(C(C(C(O3)CO)O)O)OC4C(C(C(C(O4)CO)O)OC(=O)N)O)C(=O)N[C@H](C)[C@H]([C@H](C)C(=O)N[C@@H]([C@@H](C)O)C(=O)NCCC5=NC(=CS5)C6=NC(=CS6)C(=O)NCCC[S+](C)C)O [Bleomycin] + CC1(C)CCC(c2ccc(Cl)cc2)=C(CN2CCN(c3ccc(C(=O)NS(=O)(=O)c4ccc(N[C@H](CCN5CCOCC5)CSc5ccccc5)c(S(=O)(=O)C(F)(F)F)c4)cc3)CC2)C1 [Navitoclax] (partner 0.5 µM); conditions: main component drawn
In short: (§1)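 Relative viability divides the nuclei count in treated wells by that in vehicle wells. Lung cancer cell lines were seeded in 1536-well plates, dosed by pin tool the next day, and fixed and stained after 5 days in one step with final 0.05% Triton X-100, 1% formaldehyde and 1 ug/ml Hoechst. Dosing was a single drug or a fixed anchor-drug dose plus five library-drug doses (not always all listed) in √10 steps, and values are medians of duplicate plates imaged at 4×.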

Etoposide + Crizotinib = compound: COc1cc([C@@H]2c3cc4c(cc3[C@@H](O[C@@H]3O[C@@H]5CO[C@@H](C)O[C@H]5[C@H](O)[C@H]3O)[C@H]3COC(=O)[C@H]23)OCO4)cc(OC)c1O [Etoposide] + C[C@@H](Oc1cc(-c2cnn(C3CCNCC3)c2)cnc1N)c1c(Cl)ccc(F)c1Cl [Crizotinib] (partner 1 µM)
In short: as §1

Bleomycin + Palbociclib = compound: CC1=C(N=C(N=C1N)[C@H](CC(=O)N)NC[C@@H](C(=O)N)N)C(=O)N[C@@H]([C@H](C2=CN=CN2)OC3C(C(C(C(O3)CO)O)O)OC4C(C(C(C(O4)CO)O)OC(=O)N)O)C(=O)N[C@H](C)[C@H]([C@H](C)C(=O)N[C@@H]([C@@H](C)O)C(=O)NCCC5=NC(=CS5)C6=NC(=CS6)C(=O)NCCC[S+](C)C)O [Bleomycin] + CC(=O)c1c(C)c2cnc(Nc3ccc(N4CCNCC4)cn3)nc2n(C2CCCC2)c1=O [Palbociclib] (partner 0.5 µM); conditions: main component drawn
In short: as §1

Etoposide + Linsitinib = compound: COc1cc([C@@H]2c3cc4c(cc3[C@@H](O[C@@H]3O[C@@H]5CO[C@@H](C)O[C@H]5[C@H](O)[C@H]3O)[C@H]3COC(=O)[C@H]23)OCO4)cc(OC)c1O [Etoposide] + C[C@]1(O)C[C@@H](c2nc(-c3ccc4ccc(-c5ccccc5)nc4c3)c3c(N)nccn32)C1 [Linsitinib] (partner 1 µM)
In short: as §1

Cell Line | relative viability (Bleomycin + Navitoclax; first compound 0.01 µM) | relative viability (Bleomycin + Navitoclax; first compound 0.03162 µM) | relative viability (Bleomycin + Navitoclax; first compound 0.1 µM) | relative viability (Bleomycin + Navitoclax; first compound 0.3162 µM) | relative viability (Bleomycin + Navitoclax; first compound 1 µM) | relative viability (Etoposide + Crizotinib; first compound 0.01 µM) | relative viability (Etoposide + Crizotinib; first compound 0.03162 µM) | relative viability (Etoposide + Crizotinib; first compound 0.1 µM) | relative viability (Etoposide + Crizotinib; first compound 0.3162 µM) | relative viability (Etoposide + Crizotinib; first compound 1 µM) | relative viability (Bleomycin + Palbociclib; first compound 0.01 µM) | relative viability (Bleomycin + Palbociclib; first compound 0.03162 µM) | relative viability (Bleomycin + Palbociclib; first compound 0.1 µM) | relative viability (Bleomycin + Palbociclib; first compound 0.3162 µM) | relative viability (Bleomycin + Palbociclib; first compound 1 µM) | relative viability (Etoposide + Linsitinib; first compound 0.01 µM) | relative viability (Etoposide + Linsitinib; first compound 0.03162 µM) | relative viability (Etoposide + Linsitinib; first compound 0.1 µM) | relative viability (Etoposide + Linsitinib; first compound 0.3162 µM) | relative viability (Etoposide + Linsitinib; first compound 1 µM)
NCI-H838 | 0.768 | 0.403 | 0.274 | 0.19 | 0.172 | 0.85 | 0.846 | 0.973 | 0.522 | 0.345 | 0.22 | 0.173 | 0.169 | 0.153 | 0.129 | 0.937 | 0.994 | 0.902 | 0.644 | 0.296
NCI-H1355 | 1.01 | 0.947 | 0.913 | 0.565 | 0.328 | 0.918 | 1.15 | 0.5 | 0.674 | 0.306 | 0.402 | 0.382 | 0.396 | 0.253 | 0.221 | 0.732 | 0.945 | 0.466 | 0.585 | 0.334
NCI-H1437 | 0.952 | 1.07 | 0.978 | 0.667 | 0.491 | 1.04 | 0.918 | 0.926 | 0.403 | 0.361 | 0.306 | 0.224 | 0.293 | 0.256 | 0.221 | 0.993 | 1.07 | 0.984 | 0.566 | 0.262
NCI-H1651 | 0.944 | 0.82 | 0.614 | 0.272 | 0.136 | 0.815 | 0.827 | 0.629 | 0.301 | 0.202 | 0.488 | 0.454 | 0.464 | 0.288 | 0.252 | 0.885 | 0.922 | 0.864 | 0.331 | 0.134
NCI-H1666 | 0.761 | 0.579 | 0.518 | 0.362 | 0.324 | 0.906 | 0.904 | 0.68 | 0.36 | 0.301 | 0.599 | 0.655 | 0.594 | 0.578 | 0.572 | 0.906 | 0.765 | 0.523 | 0.362 | 0.333
NCI-H1734 | 0.719 | 0.571 | 0.518 | 0.24 | 0.139 | 0.647 | 0.643 | 0.541 | 0.497 | 0.271 | 0.29 | 0.245 | 0.27 | 0.207 | 0.172 | 0.746 | 0.932 | 0.725 | 0.688 | 0.509
NCI-H1755 | 0.932 | 0.933 | 0.945 | 0.724 | 0.394 | 0.846 | 0.839 | 0.931 | 0.716 | 0.595 | 0.433 | 0.435 | 0.457 | 0.408 | 0.428 | 0.985 | 1.03 | 0.974 | 0.951 | 0.858
NCI-H1792 | 0.541 | 0.665 | 0.492 | 0.302 | 0.109 | 1.02 | 0.913 | 0.825 | 0.831 | 0.623 | 0.613 | 0.624 | 0.592 | 0.482 | 0.362 | 0.405 | 0.331 | 0.261 | 0.418 | 0.289
NCI-H1915 | 0.726 | 0.78 | 0.732 | 0.537 | 0.212 | 0.859 | 0.985 | 0.825 | 0.802 | 0.481 | 0.419 | 0.389 | 0.332 | 0.173 | 0.131 | 1.1 | 1.16 | 1.06 | 0.994 | 0.851
NCI-H1944 | 0.762 | 0.77 | 0.594 | 0.423 | 0.233 | 1.03 | 1.1 | 0.763 | 0.641 | 0.258 | 0.228 | 0.188 | 0.218 | 0.156 | 0.13 | 1.45 | 1.33 | 0.844 | 0.733 | 0.392
NCI-H1975 | 0.872 | 0.878 | 0.584 | 0.28 | 0.222 | 0.98 | 1.06 | 1.05 | 0.668 | 0.249 | 0.377 | 0.398 | 0.397 | 0.226 | 0.178 | 0.973 | 1.07 | 0.902 | 0.67 | 0.345
NCI-H1993 | 0.887 | 0.765 | 0.863 | 0.663 | 0.584 | 0.758 | 0.856 | 0.734 | 0.712 | 0.473 | 0.579 | 0.525 | 0.535 | 0.451 | 0.329 | 0.81 | 0.692 | 0.7 | 0.662 | 0.537
NCI-H2009 | 1.16 | 1.18 | 1.09 | 0.858 | 0.532 | 1.02 | 0.994 | 1.08 | 0.713 | 0.329 | 0.202 | 0.164 | 0.215 | 0.16 | 0.192 | 1.09 | 1.24 | 1.25 | 0.839 | 0.401
NCI-H2023 | 0.723 | 0.72 | 0.519 | 0.244 | 0.148 | 0.605 | 0.622 | 0.525 | 0.212 | 0.106 | 0.333 | 0.302 | 0.25 | 0.125 | 0.13 | 0.617 | 0.646 | 0.651 | 0.444 | 0.171
